Measured values reported in PMC11362529, “Exploring the neuroprotective potential of Nrf2-pathway activators against annonacin toxicity” (Scientific Reports, 2024).

What was measured:
Assay type in all cases: cell-based, human
NQO1 = NQO1 mRNA by RT-qPCR; settings: 48 h
Procedure: LUHMES cells were seeded on PLO/FN coated 6-well microplates and the pharmacological treatments were performed as previously explained. The cells were washed in HBSS, prior to being collected for mRNA isolation (RNeasy® Plus Mini Kit, Qiagen, Venlo, Netherlands), following the manufacturer’s instructions. The mRNA concentrations were determined on a Nano-Drop 2000c (Thermo Fisher Scientific) and 1 µg of mRNA was reverse-transcribed into cDNA with the iScript™ Reverse Transcription Supermix for RT-qPCR Kit (Bio-Rad) on a thermal cycler (SensoQuest, Göttingen, Germany). Real-time PCR was performed using SYBR™ Select Master Mix for CFX (Thermo Fisher Scientific) with 30 ng cDNA and 0.4 µM of primers against the respective target genes (Supplementary Table S3), in a 20 µl total volume, on a CFX96 Touch™ Real-Time Cycler (Bio-Rad). The relative expression of mRNA was calculated using the CFX Manager software (ΔΔCt method) from Bio-Rad, and the Ct values of the target-genes were normalized to the reference genes RPL22 and UBQLN1. The data were reported as fold change relative to the control (DMSO-treated) condition.

Nrf2 = Nrf2 nuclear translocation (cell fractionation, Western blot); settings: 4 h treatment
Procedure: For fractionation experiments, LUHMES were seeded on double-coated T25 flasks and submitted to pharmacological treatments. Afterwards, the medium was removed and cells were briefly washed with warm HBSS, and trypsinized for 5 min at 37 °C. The cells were pelleted at 500×g for 5 min at 4 °C, washed once with ice-cold PBS (phosphate buffered saline), and centrifuged at 500 g for 2 min at 4 °C. Nuclear protein extraction was achieved using the NE-PER™ nuclear and cytoplasmic extraction kit (Thermo Fisher Scientific), according to the manufacturer’s instructions. Briefly, the pellet was resuspended in 50 µl of CER I buffer, supplemented with Halt™ protease and phosphatase inhibitor cocktail (Thermo Fisher Scientific), and incubated on ice for 10 min, followed by the addition of 2.75 µl of CER II, and a 2 min incubation on ice after vortexing. The samples were then centrifuged at maximum speed for 10 min at 4 °C and the cytoplasmic fraction was saved. The nuclear pellet was washed with ice-cold PBS and resuspended in 25 µl of NER buffer supplemented with protease and phosphatase inhibitors, followed by 6 cycles of 10 min incubation on ice, with 15 s of vortexing between each cycle. Finally, the samples were centrifuged at maximum speed for 10 min at 4 °C and the nuclear fraction was transferred to a new tube. All protein extracts were stored long-term at − 80 °C.
The concentrations of protein extracts were determined by BCA (bicinchoninic acid) assay, using the Pierce™ BCA protein assay kit (Thermo Fisher Scientific), according to the manufacturer’s instructions. Absorbance values were measured on a FLUOstar® Omega plate reader. For Western blot analysis, sample volumes were diluted in PBS to ensure that equal amounts of total protein were loaded. For fractionated samples, 30 µg of cytoplasmic fraction and 15 µg of nuclear fraction were applied. Samples were denatured by heating at 95 °C for 5 min on a ThermoMixer C (Eppendorf, Wesseling-Berzdorf, Germany) with 4 × Laemmli sample buffer supplemented with 10% β-ME (β-mercaptoethanol). SDS–PAGE was performed using 7.5% Criterion™ TGX™ precast midi gels in a Tris–glycine-SDS running buffer (Bio-Rad). The proteins were blotted onto PVDF membranes, using a trans-blot turbo transfer system (Bio-Rad) at 25 V for 30 min. The membranes were blocked for 1 h at RT, with 3 × Roti®-Block solution (Carl Roth, Karlsruhe, Germany) or 5% nonfat-dry milk in 0.05% TBST (Tris-buffered saline with 0.05% Tween20), in the case of the Nrf2 antibody. Membranes were incubated at 4 °C overnight under gentle shaking with the appropriate primary antibody solutions as listed in Supplementary Table S2. On the following day, the membranes were washed with TBST, and incubated with the HRP-secondary antibodies for 2 h at RT (Supplementary Table S2). After further washing, the membranes were exposed to Clarity Western ECL Substrate (Bio-Rad), or SuperSignal West Femto Maximum Sensitivity Substrate (Thermo Fisher Scientific) in the case of the Nrf2 antibody. Chemiluminescence signal was detected with an Odyssey® Fc imaging system (LI-COR Biosciences, Bad Homburg, Germany) and analyzed by Image Studio™ software (LI-COR Biosciences). Fraction purity was confirmed and signal intensity normalized to housekeeping proteins, using β-III tubulin for the cytoplasmic fraction and lamin A for the nuclear fraction. Protein expression was expressed as fold change relative to the control (DMSO-treated) condition.

[1] = system: Nrf2-knockdown LUHMES cells; assay: Cell viability in Nrf2-knockdown cells exposed to annonacin (calcein); settings: Nrf2 siRNA, compound + 20 nM annonacin, 48 h
Procedure: The calcein AM green dye (Thermo Fisher Scientific) was diluted in DMSO to obtain a 1 mM stock solution. The stock solution was further diluted in HBSS (Hanks' balanced salt solution), immediately before incubation, to achieve a final working concentration of 1 μM in the well. The medium was removed, the cells were washed once with warm HBSS, and 200 µl of calcein working solution was added to each well. For background correction, 200 µl of calcein working solution was added to a well without cells (background control). After 30 min of incubation at 37 °C, the calcein solution was removed and the cells were washed once with HBSS. Cells were lysed in a 200 µl volume of 1% Triton™ X-100 in PBS (phosphate buffered saline) and the lysate transferred to a 96‐well black plate for the readout. The fluorescence signal was measured on a FLUOstar® Omega plate reader (BMG LabTech, Ortenberg, Germany) at λ Ex/Em = 485/530 nm and data was analyzed with the MARS data analysis software (BMG LabTech). For background correction, we subtracted the background control signal from the measured values of all experimental conditions. Data were expressed as percentage of viability relative to the control (DMSO-treated) condition.
LUHMES cells seeded on PLO/FN coated 48-well microplates were left to differentiate for 5 days, before being transfected with 25 nM of NRF2-targeting (gene ID 4780) or negative control siRNA (siTOOLs Biotech, Planegg, Germany), in Opti-MEM + GlutaMax medium (Thermo Fisher Scientific) with 0.4% of lipofectamine RNAiMax. After 24 h, the medium was removed and replaced with glucose-reduced medium for the pharmacological treatments, similar as described in the previous sections. Cell viability was determined by calcein assay, after 48 h of treatment, as explained before.

[2] = absence of annonacin, vs control

| SMILES | NQO1 mRNA expression (NQO1; 20 nM annonacin alone (DMSO control condition) vs DMSO control without annonacin) | Nrf2 expression in the nuclear fraction, normalized to lamin A (Nrf2; [2]) | Nrf2 expression in the nuclear fraction, normalized to lamin A (Nrf2; presence of 20 nM annonacin) | NQO1 mRNA expression (NQO1; absence of annonacin) | NQO1 mRNA expression (NQO1; presence of 20 nM annonacin, vs DMSO control under annonacin) | protective effects against annonacin toxicity in Nrf2-knockdown cells [1] |
| --- | --- | --- | --- | --- | --- | --- |
| CCCCCCCCCCCC[C@@H](O)[C@H]1CC[C@H]([C@H](O)CCCC[C@H](O)CCCCC[C@@H](O)CC2=CC(C)OC2=O)O1 (some centres unmarked) [annonacin] | downregulation of both target-genes |  |  |  |  |  |
| O=C1[C@H](CC[C@H](O)c2ccc(F)cc2)[C@@H](c2ccc(O)cc2)N1c1ccc(F)cc1 [ezetimibe] |  | no evidence of increasing the Nrf2 nuclear expression | no evidence of increasing the Nrf2 nuclear expression | did not induce significant changes | did not induce significant changes | did not observe an abolishment of the neuroprotective effects |
| Cn1c(Nc2nc3ccc(C(F)(F)F)cc3s2)nc2cc(C(=O)NCCOCCO)ccc21 [HPP-D] |  | significantly increased expression of Nrf2 protein in the nuclear fraction | higher expression of Nrf2 in the nuclear fraction | fivefold |  | slightly attenuated in Nrf2-knockdown cells |
| C=CC(C)(C)c1cc(/C=C/C(=O)c2ccc(O)cc2)c(OC)cc1O [licochalcone A] |  | significantly increased expression of Nrf2 protein in the nuclear fraction | higher expression of Nrf2 in the nuclear fraction | 2.5 fold over DMSO control |  | slightly attenuated in Nrf2-knockdown cells |
